This note sets out measurements from patent US4030886A, “Saturation analysis” (The Radiochemical Centre Limited, priority 1973, dated 1977).

Each structure is given as a SMILES string. Values joined by “and” are separate entries in the source; they are usually repeats but may differ in a detail not shown here. Identical values can stand only once.

In assay [1] the test system is antiserum raised to digoxin. Kind of assay: Dilution curve for 3-methylselenodigoxigenin. Format: binding. The note with it: for Mean Count: 200 μl supernatant. The method, then:
An antiserum dilution curve for 3-methylselenodigoxigenin-Se 75 (specific activity 16 Ci/m mol) in buffered saline (0.15M NaCl, 0.05M KH2 PO4, 0.1% Na N3, and 0.1% BSA) was made up at a concentration of 0.0228 n mol/ml. Dilutions of antiserum raised to digoxin were prepared in assay buffer at 1/50, 1/100, 1/200, 1/400, 1/500, 1/800, 1/1000. Tubes were set up in duplicate for total activity, blanks, and antiserum dilutions as follows: total activity, 50 μl ^75 Se compound and 250 μl assay buffers; blanks, 50 μl ^75 Se compound and 150 μl assay buffer; antiserum dilutions, 50 μl ^75 Se compound, 100 μl buffer and 50 μl antiserum. The tubes were incubated for 30 minutes after which 100 μl of charcoal (0.65 g Norit OL in 50 ml assay buffer + 1 gram BSA) was added to each tube except the totals. After 10 minutes incubation the tubes were centrifuged and a 200 μl sample of the supernatant was counted.

The target in assay [2] is T1, transcortin (charcoal treated rabbit serum) (Oryctolagus cuniculus, UniProt P23775).
T1 construct: charcoal treated rabbit serum; from tissue; host or cells: rabbit serum, charcoal treated
T1 sequence (P23775 1-383): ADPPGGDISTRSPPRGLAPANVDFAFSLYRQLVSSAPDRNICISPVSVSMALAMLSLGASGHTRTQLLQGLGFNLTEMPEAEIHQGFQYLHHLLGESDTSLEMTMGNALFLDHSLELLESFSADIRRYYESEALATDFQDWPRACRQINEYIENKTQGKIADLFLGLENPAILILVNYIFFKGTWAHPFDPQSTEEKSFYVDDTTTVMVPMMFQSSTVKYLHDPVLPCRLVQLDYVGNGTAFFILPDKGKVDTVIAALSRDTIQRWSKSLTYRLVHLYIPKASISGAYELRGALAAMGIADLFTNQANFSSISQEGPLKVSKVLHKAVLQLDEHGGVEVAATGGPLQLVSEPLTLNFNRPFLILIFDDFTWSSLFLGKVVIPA
Kind of assay: Assay for cortisol using 2-methylseleno-1-dehydro-cortisol-21-acetate-Se75. The note with it: for Counts - BKG in 300 sec: 2.5 ng label. The format is binding. The method, then: Into each glass assay tube was dispensed glycine buffer containing 1% sodium azide (pH 9.0; 5.5 ml), charcoal treated rabbit serum (50 μl), bis-2,2'-(21-acetoxy-1-dehydrocortisol)-diselenide-Se 75 (2.3 ng, sp. activity ca 6 Ci/m atom), and Sephadex G25 (1 g). […] The tubes were capped and rotated at room temperature for 1 hour using a blood cell suspension mixer. After this time an aliquot (1 ml) of the supernatant liquid was withdrawn from each tube and counted for 300 seconds using an NE8311 gamma counter.
Into each glass assay tube was dispensed 0.05M phosphate buffer containing sodium azide 1% (pH 7.4; 6 ml), charcoal treated rabbit serum (50 μl), 2-methylseleno-1-dehydrocortisol-21-acetate-Se75) (2.5 ng; sp. activity ca 3 Ci/m atom), and Sephadex G25 (1 g).
The assay procedure was identical with that described above.

As for `C[75Se]C1CC[C@@]2(C)[C@H](CC[C@@H]3[C@@H]2C[C@@H](O)[C@]2(C)[C@@H](C4=CC(=O)OC4)CC[C@]32O)C1` (stereo partly shown) [3-methylselenodigoxigenin-Se 75], the “% of Total Counts Bound” value in assay [1] (antiserum 1/50 dilution) is given as 97.0%; in assay [1] (antiserum 1/100 dilution), 80.6%; in assay [1] (antiserum 1/200 dilution) it was 44.3%; in assay [1] (antiserum 1/400 dilution), 26.8%; in assay [1] (antiserum 1/500 dilution), 21.8%; in assay [1] (antiserum 1/800 dilution), 15.3%. Moreover, in assay [1] (antiserum 1/1000 dilution), the “% of Total Counts Bound” value stood at 12.2%. The “Mean Count” value in assay [1] (antiserum 1/50 dilution) was found to be 20750; in assay [1] (antiserum 1/100 dilution), 17224; in assay [1] (antiserum 1/200 dilution) it was 9489; in assay [1] (antiserum 1/400 dilution), 5744; in assay [1] (antiserum 1/500 dilution), 4659; in assay [1] (antiserum 1/800 dilution), 3277. The “Mean Count” value in assay [1] (antiserum 1/1000 dilution) is given as 2602.

On to `C[75Se]C1=C[C@@]2(C)C(=CC1=O)CC[C@@H]1[C@@H]2[C@@H](O)C[C@@]2(C)[C@H]1CC[C@]2(O)C(=O)COC(C)=O` [2-methylseleno-1-dehydrocortisol-21-acetate-Se75], for which the “Counts - BKG in 300 sec” value was 37447 and 37551 in assay [2] (cortisol standard 0 μg/100 ml); 36495 and 36981 in assay [2] (cortisol standard 2 μg/100 ml); 35381 and 34565 in assay [2] (cortisol standard 4 μg/100 ml); 31090 and 32353 in assay [2] (cortisol standard 8 μg/100 ml); 28011 and 28180 in assay [2] (cortisol standard 16 μg/100 ml); 24135 and 24340 in assay [2] (cortisol standard 32 μg/100 ml). Further, in assay [2] (cortisol standard 64 μg/100 ml), the “Counts - BKG in 300 sec” value is 21601 and 21777. Moreover, the “dose-response curve of the cortisol assay” value in assay [2] (methylseleno- compared with the diseleno- derivative as label) is recorded as “steeper dose-response curve”.
